Assay: xn = mol fraction of the nth substance listed
Settings: 101.3 kPa, Liquid

Cc1ccc(C)cc1 [1,4-dimethylbenzene] + C[S+](C)[O-]
Settings	mass density [kg/m3]
293.15 K, x1 = 0.0599	1077
293.15 K, x1 = 0.1284	1052.94
293.15 K, x1 = 0.1944	1031.59
293.15 K, x1 = 0.2783	1006.68
293.15 K, x1 = 0.3589	984.83
293.15 K, x1 = 0.4385	965.03
293.15 K, x1 = 0.5032	950.09
293.15 K, x1 = 0.5539	939.03
293.15 K, x1 = 0.6235	924.72
293.15 K, x1 = 0.7023	909.62
293.15 K, x1 = 0.7635	898.63
293.15 K, x1 = 0.8243	888.27
293.15 K, x1 = 0.8831	878.73
293.15 K, x1 = 0.9327	871.04
303.15 K, x1 = 0.0632	1067.37
303.15 K, x1 = 0.1639	1032.58
303.15 K, x1 = 0.2343	1010.65
303.15 K, x1 = 0.2934	993.59
303.15 K, x1 = 0.3513	977.92
303.15 K, x1 = 0.425	959.33
303.15 K, x1 = 0.4892	944.29
303.15 K, x1 = 0.5633	928.09
303.15 K, x1 = 0.6398	912.58
303.15 K, x1 = 0.7135	898.68
303.15 K, x1 = 0.7624	889.95
303.15 K, x1 = 0.8243	879.44
303.15 K, x1 = 0.8609	873.48
303.15 K, x1 = 0.9244	863.55
313.15 K, x1 = 0.0662	1057.67
313.15 K, x1 = 0.1358	1033.11
313.15 K, x1 = 0.1942	1014.07
313.15 K, x1 = 0.2578	994.8
313.15 K, x1 = 0.3249	975.96
313.15 K, x1 = 0.3895	959.1
313.15 K, x1 = 0.4509	944.13
313.15 K, x1 = 0.5345	925.24
313.15 K, x1 = 0.6106	909.4
313.15 K, x1 = 0.6719	897.46
313.15 K, x1 = 0.754	882.52
313.15 K, x1 = 0.8358	868.7
313.15 K, x1 = 0.9235	854.92
323.15 K, x1 = 0.0573	1052.39
323.15 K, x1 = 0.1537	1018.34
323.15 K, x1 = 0.2359	992.38
323.15 K, x1 = 0.3131	970.2
323.15 K, x1 = 0.383	951.75
323.15 K, x1 = 0.4509	935.12
323.15 K, x1 = 0.5234	918.67
323.15 K, x1 = 0.5902	904.55
323.15 K, x1 = 0.6618	890.43
323.15 K, x1 = 0.7385	876.35
323.15 K, x1 = 0.8123	863.72
323.15 K, x1 = 0.8832	852.33
323.15 K, x1 = 0.9321	844.86
333.15 K, x1 = 0.0529	1045.49
333.15 K, x1 = 0.1248	1019.37
333.15 K, x1 = 0.1944	996.31
333.15 K, x1 = 0.265	974.86
333.15 K, x1 = 0.3398	954.01
333.15 K, x1 = 0.4014	938.13
333.15 K, x1 = 0.4624	923.43
333.15 K, x1 = 0.5137	911.8
333.15 K, x1 = 0.5823	897.2
333.15 K, x1 = 0.6582	882.18
333.15 K, x1 = 0.731	868.78
333.15 K, x1 = 0.8043	856.2
333.15 K, x1 = 0.8638	846.57
333.15 K, x1 = 0.9247	837.2
343.15 K, x1 = 0.0638	1032.77
343.15 K, x1 = 0.1398	1005.47
343.15 K, x1 = 0.2012	985.32
343.15 K, x1 = 0.275	963.03
343.15 K, x1 = 0.351	942.07
343.15 K, x1 = 0.4132	926.22
343.15 K, x1 = 0.4891	908.31
343.15 K, x1 = 0.5409	896.9
343.15 K, x1 = 0.6148	881.67
343.15 K, x1 = 0.6728	870.48
343.15 K, x1 = 0.7322	859.68
343.15 K, x1 = 0.813	845.91
343.15 K, x1 = 0.8732	836.29
343.15 K, x1 = 0.9322	827.33
353.15 K, x1 = 0.0609	1025.3
353.15 K, x1 = 0.1428	995.69
353.15 K, x1 = 0.218	971.2
353.15 K, x1 = 0.2843	951.45
353.15 K, x1 = 0.3598	930.79
353.15 K, x1 = 0.4241	914.57
353.15 K, x1 = 0.481	901.17
353.15 K, x1 = 0.5393	888.27
353.15 K, x1 = 0.6042	874.83
353.15 K, x1 = 0.6629	863.42
353.15 K, x1 = 0.7321	850.8
353.15 K, x1 = 0.7832	842
353.15 K, x1 = 0.833	833.83
353.15 K, x1 = 0.9128	821.46

From the NIST ThermoML archive (doi:10.1016/j.jct.2004.04.004)
